Experimental findings from patent US10722520B2, “Heterocyclic compounds and their use in preventing or treating bacterial infections” (MUTABILIS, priority 2016, dated 2020) are described below.

As a reminder, the IC50 is the concentration that inhibits the measured activity by half.

The target in one assay is OXA-1 (Escherichia coli, UniProt P13661). The note with it: read-out: IC50 β-lactamase OXA-1; class (D); nitrocefin 200 μM, 30-min pre-incubation, enzyme 0.2 nM.
Assay [1] concerns P. aeruginosa CIP107051. Nature of the assay: MIC of ceftazidime (CAZ) at fixed concentration of compound (synergy), broth microdilution. The assay is classed as cell-based. Conditions: strain CIP107051; MIC of CAZ, compound fixed at 4 μg/mL. An outline of the steps:
(§1)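 Step one, log-phase suspension set to 5×10^5 cfu/mL final in CA-MHB. Step two, incubation at 35° C under ambient air for 16-20 h. Step three, visual reading of the lowest growth-free concentration as MIC.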

Assay [2] has as its system E. coli 190317. The assay is described as above. The note with it: strain 190317; MIC of CAZ, compound fixed at 4 μg/mL. The assay is classed as cell-based. The method in brief: as §1
Assay [3] relates to K. pneumoniae BAA-1898. The description is as above. It is filed as cell-based. The note with it: strain BAA-1898; MIC of CAZ, compound fixed at 4 μg/mL. An outline of the steps:
as §1

The subject of assay [4] is E. cloacae P99. The description is as above. It is filed as cell-based. The note with it: strain P99; MIC of CAZ, compound fixed at 4 μg/mL. The method in brief: as §1
For assay [5], the system named is K. pneumoniae 6299. The assay is described as above. Conditions: strain 6299; MIC of CAZ, compound fixed at 4 μg/mL. The assay is classed as cell-based. The method in brief: as §1
For another assay, the target named is OXA-15 (Pseudomonas aeruginosa, UniProt Q51574). The note with it: read-out: IC50 β-lactamase OXA-15; class (D); nitrocefin 200 μM, 30-min pre-incubation, enzyme 0.4 nM.
Another assay concerns the target TEM-1 (Escherichia coli, UniProt P62593). The note with it: read-out: IC50 β-lactamase TEM-1; class (A); nitrocefin 200 μM, 30-min pre-incubation, enzyme 0.1 nM.
The subject of assay [6] is P. aeruginosa CIP107051. Nature of the assay: MIC of compound alone, broth microdilution. It is filed as cell-based. Conditions: strain CIP107051; compound alone. The method in brief: as §1
A general note: In broth dilution the organism is exposed to a series of concentrations in liquid medium.

Assay [7] relates to E. coli 190317. Nature of the assay: MIC of compound alone, broth microdilution. The assay is classed as cell-based. Conditions: strain 190317; compound alone. The method in brief: as §1
Assay [8] deals with K. pneumoniae BAA-1898. Nature of the assay: MIC of compound alone, broth microdilution. The assay is classed as cell-based. Conditions: strain BAA-1898; compound alone. The method in brief:
as §1

The test system of assay [9] is E. cloacae P99. Nature of the assay: MIC of compound alone, broth microdilution. It is filed as cell-based. Conditions: strain P99; compound alone. An outline of the steps:
as §1

For assay [10], the system named is K. pneumoniae 6299. Nature of the assay: MIC of compound alone, broth microdilution. It is filed as cell-based. Conditions: strain 6299; compound alone. The method in brief: as §1
The next assay concerns the target SHV-1 (Klebsiella pneumoniae, UniProt P0AD64). Conditions: read-out: IC50 β-lactamase SHV-1; class (A); nitrocefin 200 μM, 30-min pre-incubation, enzyme 0.075 nM.
Another assay addresses CTX-M-15 (Escherichia coli, UniProt Q9EXV5). The note with it: read-out: IC50 β-lactamase CTX-M-15; class (A); nitrocefin 200 μM, 30-min pre-incubation, enzyme 0.4 nM.
The next assay has as its target AmpC (PAE) (Pseudomonas aeruginosa, UniProt P24735). The note with it: read-out: IC50 β-lactamase AmpC (PAE); class (C); nitrocefin 200 μM, 30-min pre-incubation, enzyme 0.4 nM.
Another assay deals with OXA-11 (Pseudomonas aeruginosa, UniProt Q06778). The note with it: read-out: IC50 β-lactamase OXA-11; class (D); nitrocefin 200 μM, 30-min pre-incubation, enzyme 1.2 nM.
A further assay addresses OXA-48 (Klebsiella pneumoniae, UniProt Q6XEC0). The note with it: read-out: IC50 β-lactamase OXA-48; class (D); nitrocefin 200 μM, 30-min pre-incubation, enzyme 0.3 nM.
The target of the next assay is AmpC (P99) (Enterobacter cloacae, UniProt P05364). The note with it: read-out: IC50 β-lactamase AmpC (P99); class (C); nitrocefin 200 μM, 30-min pre-incubation, enzyme 0.2 nM.
For the next assay, the target named is KPC-2 (Klebsiella pneumoniae, UniProt Q9F663). Conditions: read-out: IC50 β-lactamase KPC-2; class (A); nitrocefin 200 μM, 30-min pre-incubation, enzyme 1 nM.
A further assay addresses CMY-37 (Citrobacter freundii, UniProt P05193). Conditions: read-out: IC50 β-lactamase CMY-37; class (C); nitrocefin 200 μM, 30-min pre-incubation, enzyme 0.2 nM.

Bounds are passed on as bounds.

Take `CN(C)Cc1cn(C2=CC3CN(C2)C(=O)N3OS(=O)(=O)[O-])nn1.[Na+]` (stereo not drawn) [Example 59, sodium [3-[4-(dimethylamino)methyltriazol-1-yl]-7-oxo-1,6-diazabicyclo[3.2.1]oct-3-en-6-yl]sulfate]: the IC50 on OXA-1 is 0.21 µM; on OXA-15, 0.0066 µM; on TEM-1, 0.00069 µM; at SHV-1 it was 0.0025 µM; on CTX-M-15, 0.00055 µM; at AmpC (PAE) it was 0.59 µM. In addition, the IC50 was 0.17 µM at OXA-11; 0.0012 µM at OXA-48; 0.034 µM at AmpC (P99); 0.012 µM on KPC-2; 0.072 µM at CMY-37. Further, the “MIC combination of CAZ and compounds of the invention at 4 μg/mL” value (“MIC combination” below) was 8 µg/mL with P. aeruginosa CIP107051 [1]; less than 0.25 µg/mL with E. coli 190317 [2]; no more than 0.25 µg/mL with K. pneumoniae BAA-1898 [3]; less than 0.25 µg/mL in the assay on E. cloacae P99 [4]; no more than 0.25 µg/mL with K. pneumoniae 6299 [5]. Also, the “MIC compounds of the invention alone” value with P. aeruginosa CIP107051 [6] was greater than 32 µg/mL; in the assay on E. coli 190317 [7], 1 µg/mL; with K. pneumoniae BAA-1898 [8], greater than 32 µg/mL; in the assay with E. cloacae P99 [9], 2 µg/mL; in the assay on K. pneumoniae 6299 [10] it was greater than 32 µg/mL.
On to `CC(=O)Nc1ccn(C2=CC3CN(C2)C(=O)N3OS(=O)(=O)O)n1.CCN(CC)CC` (stereo not drawn) [Example 33, triethylammonium {[3-(N-acetamido)pyrazol-1-yl]-7-oxo-1,6-diazabicyclo[3.2.1]oct-3-en-6-yl}sulfate], for which the IC50 on OXA-1 was found to be 0.068 µM; on OXA-15 it was 0.044 µM; at TEM-1, 0.00067 µM; on SHV-1, 0.0017 µM; on CTX-M-15, 0.00072 µM; on AmpC (PAE), 0.032 µM. Further, the IC50 on OXA-11 was 0.0084 µM; on OXA-48, 0.0031 µM; on AmpC (P99), 0.0071 µM; at KPC-2, 0.011 µM; at CMY-37 it was 0.0032 µM. Further, the “MIC combination” value is 8 µg/mL in the assay with P. aeruginosa CIP107051 [1]; no more than 0.25 µg/mL with E. coli 190317 [2]; 16 µg/mL with K. pneumoniae BAA-1898 [3]; 1 µg/mL in the assay with E. cloacae P99 [4]; 0.25 µg/mL in the assay on K. pneumoniae 6299 [5]. Further, the “MIC compounds of the invention alone” value is greater than 32 µg/mL in the assay on P. aeruginosa CIP107051 [6]; 8 µg/mL in the assay on E. coli 190317 [7]; 32 µg/mL in the assay with K. pneumoniae BAA-1898 [8]; 16 µg/mL with E. cloacae P99 [9]; 32 µg/mL in the assay on K. pneumoniae 6299 [10].
Regarding `CN(C)C.NC(=O)CCc1nccn1C1=CC2CN(C1)C(=O)N2OS(=O)(=O)O` (stereo not drawn) [Example 73, trimethylammonium [3-[2-(3-amino-3-oxo-propyl)imidazol-1-yl]-7-oxo-1,6-diazabicyclo[3.2.1]oct-3-en-6-yl]sulfate], the IC50 on OXA-1 was 0.044 µM; on OXA-15, 0.27 µM; on TEM-1, 0.0019 µM; on SHV-1, 0.0098 µM; at CTX-M-15 it was 0.0044 µM; at AmpC (PAE), 0.25 µM. For the same molecule, the 50% inhibitory concentration (IC50) amounted to 0.087 µM at OXA-11; 0.0037 µM at OXA-48; 0.092 µM on AmpC (P99); 0.078 µM at KPC-2; 0.086 µM on CMY-37. The “MIC combination” value was 8 µg/mL in the assay with P. aeruginosa CIP107051 [1]; 0.5 µg/mL with E. coli 190317 [2]; 1 µg/mL with K. pneumoniae BAA-1898 [3]; 4 µg/mL with E. cloacae P99 [4]; 4 µg/mL in the assay on K. pneumoniae 6299 [5]. Also, the “MIC compounds of the invention alone” value in the assay with P. aeruginosa CIP107051 [6], in the assay on E. coli 190317 [7], in the assay on K. pneumoniae BAA-1898 [8], in the assay with E. cloacae P99 [9] and in the assay on K. pneumoniae 6299 [10] was greater than 32 µg/mL in each case.
With `O=C([O-])CCc1cn(C2=CC3CN(C2)C(=O)N3OS(=O)(=O)[O-])nn1.[Na+].[Na+]` (stereo not drawn) [Example 65, disodium [3-[4-(propanoate)triazol-1-yl]-7-oxo-1,6-diazabicyclo[3.2.1]oct-3-en-6-yl]sulfate], the IC50 amounted to 0.053 µM on OXA-1; 0.0067 µM at OXA-15; 0.00027 µM at TEM-1; 0.0028 µM on SHV-1; 0.00096 µM on CTX-M-15; 0.49 µM at AmpC (PAE). For the same molecule, the half-maximal inhibitory concentration (IC50) was 0.27 µM at OXA-11; 0.0008 µM on OXA-48; 0.011 µM at AmpC (P99); 0.006 µM on KPC-2; 0.013 µM at CMY-37. Further, the “MIC combination” value was 8 µg/mL with P. aeruginosa CIP107051 [1]; 0.5 µg/mL in the assay on E. coli 190317 [2]; 64 µg/mL with K. pneumoniae BAA-1898 [3]; 8 µg/mL with E. cloacae P99 [4]; 2 µg/mL with K. pneumoniae 6299 [5]. Further, the “MIC compounds of the invention alone” value with P. aeruginosa CIP107051 [6] is greater than 32 µg/mL; in the assay on E. coli 190317 [7], 32 µg/mL; with K. pneumoniae BAA-1898 [8], 32 µg/mL; in the assay with E. cloacae P99 [9], 32 µg/mL; in the assay on K. pneumoniae 6299 [10], 32 µg/mL.
Turning to `NC(=O)c1cc(F)n(C2=CC3CN(C2)C(=O)N3OS(=O)(=O)[O-])n1.[Na+]` (stereo not drawn) [Example 30, sodium (7-oxo-3-(3-carboxamide-5-fluoro-pyrazol-1-yl)-1,6-diazabicyclo[3.2.1]oct-3-en-6-yl) sulfate], the IC50 on OXA-1 is 0.35 µM; at OXA-15 it was 0.17 µM; at TEM-1, 0.00033 µM; at SHV-1, 0.0027 µM; on CTX-M-15 it was 0.001 µM; at AmpC (PAE), 0.37 µM. Also, the IC50 on OXA-11 was found to be 0.029 µM; on OXA-48, 0.036 µM; at AmpC (P99), 0.028 µM; on KPC-2 it was 0.0053 µM; on CMY-37 it was 0.099 µM. Also, the “MIC combination” value came to 16 µg/mL in the assay with P. aeruginosa CIP107051 [1]; 0.25 µg/mL with E. coli 190317 [2]; 2 µg/mL in the assay with K. pneumoniae BAA-1898 [3]; 8 µg/mL in the assay with E. cloacae P99 [4]; 1 µg/mL in the assay with K. pneumoniae 6299 [5]. Also, the “MIC compounds of the invention alone” value in the assay on P. aeruginosa CIP107051 [6] is greater than 32 µg/mL; in the assay with E. coli 190317 [7], 32 µg/mL; in the assay with K. pneumoniae BAA-1898 [8], greater than 32 µg/mL; in the assay with E. cloacae P99 [9] it was greater than 32 µg/mL; in the assay with K. pneumoniae 6299 [10] it was greater than 32 µg/mL.
